For test [1], the system named is U937 cells. In words: Cellular assay in U937 cells on cell death (necroptosis), TNFα/zVAD.fmk. The class given is cell-based. An excerpt:
Cellular Assay in U937 Cells to Measure the Activity of RIPK1-Inhibitors on Cell Death (Necroptosis).
Cell death was quantified in 96 well plates by determination of the amount of live cell using a CellTiter 96 AQueous reagent (Promega), a calorimetric method to measure the amount of live cells by reducing tetrazolium compound [3-(4,5-dimethylthiazol-2-yl)-5-(3-carboxymethoxyphenyl)-2-(4-sulfophenyl)-2H-tetrazolium, inner salt; MTS] into formazan. Absorbance of formazan was read at 490 nm. The inhibitory activity of the test compound was quantified in a concentration response curve (CRC) experiment. Compounds were obtained as 10 mM stock solutions and were diluted 1 to 10 volumes with DMSO to yield a 1 mM solution. From this solution 2 μl were diluted with 998 μl growth medium. 100 μl of 2 μM compound solution was further diluted sequentially with a dilution factor of 2.5 by adding 150 μl growth medium. A total of 10 concentrations were tested ranging from 10 μM to 0.26 nM or from 1 μM to 0.07 nM.
U937 cells were cultured in RPMI1640 Glutamax and 10% heat inactivated FBS. 50 μl cell suspension containing 1×10^6 cells/ml supplemented with 50 μM zVAD.fmk (Benzyloxycarbonyl-Val-Ala-Asp (OMe) fluoromethylketone) and 100 ng/ml recombinant human TNFα were dispensed in each well of a 96-well plate. 50 μl of compound dilutions (see above) were added and the cell suspension incubated overnight (18 to 24 hours) at 37° C., 5% CO2 in a humidified atmosphere (95% rH). High (no compound) and low control (no TNFα, zVAD.fmk) were tested with 7 replicates; all compound concentrations were tested in duplicates on each experimental plate.
CellTiter 96 Aqueous reagent was mixed (100 μl PMS (phenazine methosulfate) solution/2 ml MTS (3-(4,5-[…])-5-(3-carboxymethoxyphenyl)-2-(4-sulfophenyl)-2H-tetrazolium, inner salt) solution) and 20 μl were added per well. After 4 hours incubation at 37° C. (5% CO2 95% rH) optical density was measured at 490 nm on a microplate reader (Tecan Infinite M1000).
The % inhibition is expressed as percentage of the maximal inhibition value obtained in the absence of TNFα/zVAD.fmc.

Test [2] deals with T1, hRIPK1 (aa 1-375) fusion protein (Homo sapiens, UniProt Q13546).
T1 construct: hRIPK1 (aa 1-375) fusion protein
T1 sequence (Q13546 1-375): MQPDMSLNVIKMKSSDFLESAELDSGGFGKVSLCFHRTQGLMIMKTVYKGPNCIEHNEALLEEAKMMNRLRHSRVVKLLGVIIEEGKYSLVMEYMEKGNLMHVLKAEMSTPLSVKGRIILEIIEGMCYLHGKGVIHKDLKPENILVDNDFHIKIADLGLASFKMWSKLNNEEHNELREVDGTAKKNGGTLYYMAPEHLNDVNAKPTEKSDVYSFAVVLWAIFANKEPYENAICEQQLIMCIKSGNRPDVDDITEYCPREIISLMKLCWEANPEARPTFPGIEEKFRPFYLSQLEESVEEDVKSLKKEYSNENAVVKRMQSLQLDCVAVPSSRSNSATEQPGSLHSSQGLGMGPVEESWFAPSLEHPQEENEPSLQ
In words: ADP-Glo kinase assay, RIPK1 autophosphorylation. The format is biochemical. As to the method:
Evaluation of Receptor-Interacting Protein Kinase 1 Inhibition.
The catalytic activity of RIPK1 was measured by monitoring the conversion of Adenosine triphosphate (ATP) to Adenosine diphosphate (ADP) due to autophosphorylation using an ADP-Glo kinase kit (Promega, catalog no. V9104).
After another 240 minutes incubation at room temperature, 5 μl Promega ADP-Glo reagent I were added to quench the reaction and deplete unconsumed ATP. After an incubation period of 30 minutes, 10 μl Promega ADP-Glo detection reagent II were added resulting in conversion of ADP to ATP, which generates a light-reaction between luciferase and luciferin. Luminescence was quantified after 30 minutes with a Pherastar FS (BMG LABTECH, Ortenberg).
The adjustment was obtained by nonlinear regression using the Levenberg Marquardt algorithm.
On the technique in general: ADP-Glo first removes unused ATP, then detects ADP through luciferase.

Where [3] appears, read: Homo sapiens, U-937, Table 2, read-out: U937 IC50.
Setting [4] is: Homo sapiens, U-937, Key compound table 4, read-out: U937 IC50 (uM) Mean.

The values below come from patent publication US12655139B2, “Isoxazolidines as RIPK1 inhibitors and use thereof” (SANOFI, priority 2020, dated 2026).

Counter-ions that a name gives are not always drawn. Like-named read-outs stand apart in the source and are kept apart here. Some results are limits rather than exact numbers.

As for `N#Cc1cncc([C@@H]2CCON2C(=O)C2CCN(c3cc(C(N)=O)ncn3)CC2)c1` [Ex. 001], the IC50 was found to be 0.133 µM in test [1] (setting [3]) and 0.0326 µM in test [2] (Table 1).
For `N#Cc1cncc([C@@H]2CCON2C(=O)C2CCN(c3nccc(C(N)=O)n3)CC2)c1` [Ex. 004], the figures for the IC50 in test [1] (setting [4]) and in test [2] (Key compound table 4) were 0.022 µM and 0.016 µM, respectively.
As to `N#Cc1cncc([C@@H]2CCON2C(=O)C2CCN(c3nccc(C(=O)O)n3)CC2)c1` [Ex. 009], the concentration for half-maximal inhibition (IC50) in test [1] (setting [3]) was more than 10 µM; in test [2] (Table 1), 4.69 µM.
For the molecule `COC(=O)c1ccnc(N2CCC(C(=O)N3OCC[C@H]3c3cncc(C#N)c3)CC2)n1` [Ex. 010, Methyl 2-[4-[(3S)-3-(5-cyano-3-pyridyl)isoxazolidine-2-carbonyl]-1-piperidyl]pyrimidine-4-carboxylate], the IC50 was found to be 0.21 µM in test [1] (Table 2, listed as 10, read-out: U937 IC50) and 0.012 µM in test [2] (Table 1).
For `N#Cc1cncc([C@@H]2CCON2C(=O)C2CCN(c3nccc(C#N)n3)CC2)c1` [Ex. 011], the IC50 in test [1] (setting [3]) is 0.0126 µM; in test [2] (Table 1) it was 0.0245 µM.
Regarding `CC1(C(=O)N2OCC[C@H]2c2cncc(C#N)c2)CCN(c2nccc(C(N)=O)n2)CC1` [Ex. 019], the results for the IC50 in test [1] (setting [3]) and in test [2] (Table 1) were 0.0573 µM and 0.0235 µM, respectively.
As to `COC(=O)c1ccnc(N2CCC(C)(C(=O)N3OCC[C@H]3c3cncc(C#N)c3)CC2)n1` [Ex. 020, Methyl 2-[4-[(3S)-3-(5-cyano-3-pyridyl)isoxazolidine-2-carbonyl]-4-methyl-1-piperidyl]pyrimidine-4-carboxylate], the IC50 in test [1] (setting [3]) is 0.118 µM; in test [2] (Table 1), 0.0107 µM.
As to `CC1(C(=O)N2OCC[C@H]2c2cncc(C#N)c2)CCN(c2nccc(C(=O)O)n2)CC1` [Ex. 021], the IC50 in test [1] (setting [3]) was more than 10 µM; in test [2] (Table 1), 0.0704 µM.
For the molecule `N#Cc1cncc([C@@H]2CCON2C(=O)C2CCN(c3cc(C(N)=O)ccn3)CC2)c1` [Ex. 026], the IC50 in test [1] (setting [3]) was found to be 1.9 µM; in test [2] (Table 1) it was 0.0627 µM.
On the same counts, the results for `N#CCOc1nc(N2CCC(C(=O)N3OCC[C@H]3c3cncc(C#N)c3)CC2)ncc1F` [Ex. 028] are 0.00105 µM and 0.0173 µM.
On to `N#Cc1cncc([C@@H]2CCON2C(=O)C2CCN(c3ncc(F)c(OCC(=O)O)n3)CC2)c1` [Ex. 033, 2-[2-[4-[(3S)-3-(5-Cyano-3-pyridyl)isoxazolidine-2-carbonyl]-1-piperidyl]-5-fluoro-pyrimidin-4-yl]oxyacetic acid TFA salt], for which the results for the IC50 in test [1] (setting [3]) and in test [2] (Table 1) were more than 10 µM and 0.511 µM, respectively.
For `N#Cc1cncc([C@@H]2CCON2C(=O)C2CCN(c3ncc(F)c(OCC(N)=O)n3)CC2)c1` [Ex. 035], the IC50 stood at 0.183 µM in test [1] (setting [3]) and 0.0661 µM in test [2] (Table 1).
With `N#Cc1cncc([C@@H]2CCON2C(=O)C2CCN(c3ncc(F)c(N)n3)CC2)c1` [Ex. 039], the figures for the IC50 in test [1] (setting [3]) and in test [2] (Table 1) were 0.18 µM and 0.0501 µM, respectively.
Take `Cc1cncc([C@@H]2CCON2C(=O)C2CCN(c3nccc(C(N)=O)n3)CC2)n1` [Ex. 044]: the IC50 in test [1] (setting [4]) and in test [2] (Key compound table 4) was 0.009 µM throughout.
As for `Cc1cncc([C@@H]2CCON2C(=O)C2CCN(c3nccc(C#N)n3)CC2)n1` [Ex. 045], the IC50 in test [1] (setting [3]) is 0.0664 µM; in test [2] (Table 1), 0.0172 µM.
The like results for `Cc1cnc(N2CCC(C(=O)N3OCC[C@H]3c3cncc(C#N)c3)CC2)nc1C(N)=O` [Ex. 053] were, in that order, 0.0561 µM and 0.0117 µM.
The like results for `NC(=O)c1ccnc(N2CCC(C(=O)N3OCC[C@H]3c3cncc(N4CCC4=O)c3)CC2)n1` [Ex. 055] were, in that order, 0.844 µM and 0.101 µM.
Take `N#Cc1ccnc(N2CCC(C(=O)N3OCC[C@H]3c3cncc(N4CCC4=O)c3)CC2)n1` [Ex. 056, 2-[4-[(3S)-3-[5-(2-Oxoazetidin-1-yl)-3-pyridyl]isoxazolidine-2-carbonyl]-1-piperidyl]pyrimidine-4-carbonitrile]: the figures for the IC50 in test [1] (setting [3]) and in test [2] (Table 1) were 2.2 µM and 0.0425 µM, respectively.
In the case of `CCOC(=O)c1ncnc(N2CCC(C(=O)N3OCC[C@H]3c3cncc(C#N)c3)CC2)c1F` [Ex. 057, Ethyl 6-[4-[(3S)-3-(5-cyano-3-pyridyl)isoxazolidine-2-carbonyl]-1-piperidyl]-5-fluoro-pyrimidine-4-carboxylate], the IC50 in test [1] (setting [3]) is 0.11 µM; in test [2] (Table 1), 0.0309 µM.
On the same counts, the results for `N#Cc1cncc([C@@H]2CCON2C(=O)C2(F)CCN(c3ncc(F)c(C(N)=O)n3)CC2)c1` [Ex. 059] are 0.0507 µM and 0.0208 µM.
Take `CC1(C(=O)N2OCC[C@H]2c2cncnc2)CCN(c2nccc(C(N)=O)n2)CC1` [Ex. 061]: the IC50 in test [1] (setting [3]) is 0.256 µM; in test [2] (Table 1) it was 0.0391 µM.
Turning to `COc1nc(N2CCC(C(=O)N3OCC[C@H]3c3cncnc3)CC2)ncc1F` [Ex. 064], the IC50 came to 0.0642 µM in test [1] (setting [3]) and 0.0204 µM in test [2] (Table 1).
On the same counts, the results for `N#Cc1ccnc(N2CCC(C(=O)N3OCC[C@H]3c3cncnc3)CC2)c1` [Ex. 065] are 0.612 µM and 0.0656 µM.
On the same counts, the results for `N#Cc1cncc([C@@H]2CCON2C(=O)C2CCN(c3cnc(C#N)cn3)CC2)c1` [Ex. 066] are 0.205 µM and 0.0351 µM.
The like results for `N#Cc1cncc([C@@H]2CCON2C(=O)C2CCN(c3cncc(C#N)n3)CC2)c1` [Ex. 067] were, in that order, 0.553 µM and 0.0848 µM.
`N#Cc1cncc([C@@H]2CCON2C(=O)C2CCN(c3ncc(F)c(C(N)=O)n3)CC2)c1` [Ex. 068]: the IC50 in test [1] (setting [4]) was found to be 0.003 µM; in test [2] (Key compound table 4), 0.011 µM.
Take `N#Cc1cncc([C@@H]2CCON2C(=O)C2CCN(c3cncc(C(N)=O)n3)CC2)c1` [Ex. 71]: the IC50 in test [1] (setting [3]) stood at 0.964 µM; in test [2] (Table 1), 0.0256 µM.
Turning to `N#Cc1cncc([C@@H]2CCON2C(=O)C2CCN(c3cnc(C(N)=O)cn3)CC2)c1` [Ex. 072], the figures for the half-inhibitory concentration (IC50) in test [1] (setting [3]) and in test [2] (Table 1) were 0.554 µM and 0.025 µM, respectively.
For `N#Cc1cncc([C@@H]2CCON2C(=O)C2CCN(c3ncnc(C(N)=O)c3F)CC2)c1` [Ex. 073], the figures for the IC50 in test [1] (setting [3]) and in test [2] (Table 1) were 0.103 µM and 0.011 µM, respectively.
Take `NC(=O)c1nc(N2CCC(C(=O)N3OCC[C@H]3c3cnccn3)CC2)ncc1F` [Ex. 075]: the half-maximal inhibitory concentration (IC50) in test [1] (setting [4]) is 0.003 µM; in test [2] (Key compound table 4), 0.008 µM.
For the molecule `NC(=O)c1nc(N2CCC(C(=O)N3OCC[C@H]3c3cncc(F)c3)CC2)ncc1F` [Ex. 080], the values for the IC50 in test [1] (setting [3]) and in test [2] (Table 1) were 0.00337 µM and 0.0103 µM, respectively.
Regarding `Cc1ncc([C@@H]2CCON2C(=O)C2CCN(c3nccc(C(N)=O)n3)CC2)cc1C#N` [Ex. 081], the IC50 in test [1] (setting [3]) came out at 0.0297 µM; in test [2] (Table 1), 0.0157 µM.
As for `NC(=O)c1ccnc(N2CCC(C(=O)N3OCC[C@H]3c3ccc(Cl)cn3)CC2)n1` [Ex. 083], the IC50 in test [1] (setting [3]) came to 0.0495 µM; in test [2] (Table 1), 0.0161 µM.
Take `Cc1ncc([C@@H]2CCON2C(=O)C2CCN(c3ncc(F)c(C(N)=O)n3)CC2)cc1C#N` [Ex. 085]: the IC50 in test [1] (setting [3]) came out at 0.0206 µM; in test [2] (Table 1), 0.0153 µM.
In the case of `Cc1cnc([C@@H]2CCON2C(=O)C2CCN(c3nccc(C(N)=O)n3)CC2)cn1` [Ex. 087], the IC50 came to 0.0505 µM in test [1] (setting [3]) and 0.00955 µM in test [2] (Table 1).
On the same counts, the results for `CCOC(=O)N1CC(NC(=O)c2ccnc(N3CCC(C(=O)N4OCC[C@H]4c4cncc(C#N)c4)CC3)n2)C1` [Ex. 088] are 0.158 µM and 0.0336 µM.
As to `N#Cc1cncc([C@@H]2CCON2C(=O)[C@H]2CCN(c3nccc(C(N)=O)n3)C[C@@H]2F)c1` [Ex. 093], the IC50 in test [1] (setting [3]) was found to be 0.0193 µM; in test [2] (Table 1), 0.00416 µM.

One may read the IC50 as the concentration that inhibits the measured activity by half.
